# According to patent US8609636B2, “Oxime derivatives as sphingosine 1-phosphate (S1P) receptor modulators” (Allergan, Inc., priority 2010, dated 2013):
# Target: T1, human S1P1 receptor (Homo sapiens, UniProt P21453)
# T1 construct: expressed in transfected cells; membranes used
# Assay: GTP γ35S binding assay for S1P1 activity
# Assay type: biochemical
# Details: activity potency, S1P1 receptor from GTP γ35S binding; membranes, test range 0.08 to 5,000 nM
# Protocol: Compounds were synthesized and tested for S1P1 activity using the GTP γ^35S binding assay. These compounds may be assessed for their ability to activate or block activation of the human S1P1 receptor in cells stably expressing the S1P1 receptor.
# GTP γ^35S binding was measured in the medium containing (mM) HEPES 25, pH 7.4, MgCl2 10, NaCl 100, dithitothreitol 0.5, digitonin 0.003%, 0.2 nM GTP γ^35S, and 5 μg membrane protein in a volume of 150 μl. Test compounds were included in the concentration range from 0.08 to 5,000 nM unless indicated otherwise. Membranes were incubated with 100 μM 5′-adenylylimmidodiphosphate for 30 min, and subsequently with 10 μM GDP for 10 min on ice. Drug solutions and membrane were mixed, and then reactions were initiated by adding GTP γ^35S and continued for 30 min at 25° C. Reaction mixtures were filtered over Whatman GF/B filters under vacuum, and washed three times with 3 mL of ice-cold buffer (HEPES 25, pH7.4, MgCl2 10 and NaCl 100). Filters were dried and mixed with scintillant, and counted for ^35S activity using a β-counter. Agonist-induced GTP γ^35S binding was obtained by subtracting that in the absence of agonist. Binding data were analyzed using a non-linear regression method. In case of antagonist assay, the reaction mixture contained 10 nM S1P in the presence of test antagonist at concentrations ranging from 0.08 to 5000 nM.
# T1 sequence (P21453 whole entry): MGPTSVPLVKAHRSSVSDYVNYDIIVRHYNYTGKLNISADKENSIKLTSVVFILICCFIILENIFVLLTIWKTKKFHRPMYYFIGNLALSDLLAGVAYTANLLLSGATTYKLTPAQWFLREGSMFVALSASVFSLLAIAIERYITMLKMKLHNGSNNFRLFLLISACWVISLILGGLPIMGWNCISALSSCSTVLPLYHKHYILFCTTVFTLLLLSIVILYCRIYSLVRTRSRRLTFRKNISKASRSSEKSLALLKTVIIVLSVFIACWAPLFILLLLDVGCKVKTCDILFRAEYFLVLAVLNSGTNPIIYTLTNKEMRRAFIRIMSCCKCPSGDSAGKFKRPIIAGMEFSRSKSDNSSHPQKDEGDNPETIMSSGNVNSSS
row,SMILES,EC50 [nM]
1,"C/C(=N\OCC(Cc1ccc(C)c(C)c1)c1cccc(Cl)c1)c1ccc(CNCCCP(=O)(O)O)cc1 (stereo not shown) [Compound 4, {3-[(4-{(1E)-N-[2-(3-chlorophenyl)-3-(3,4-dimethylphenyl)propoxy]ethanimidoyl}benzyl)amino]propyl}phosphonic acid]",3.51
2,"C/C(=N\OCc1ccc(CNCCCP(=O)(O)O)cc1)C(Cc1ccc(C)c(C)c1)c1cccc(Cl)c1 (stereo not shown) [Compound 5, [3-({4-[({[(1E)-2-(3-chlorophenyl)-3-(3,4-dimethylphenyl)-1-methylpropylidene]amino}oxy)methyl]benzyl}amino)propyl]phosphonic acid]",2.2
3,"C/C(=N\OCC(Cc1ccc(C)c(C)c1)c1cccc(C)c1)c1ccc(CNCCCP(=O)(O)O)cc1 (stereo not shown) [Compound 2, {3-[(4-{(1E)-N-[3-(3,4-dimethylphenyl)-2-(3-methylphenyl)propoxy]ethanimidoyl}benzyl)amino]propyl}phosphonic acid]",23.4
4,"C/C(=N\OCc1ccc(CNCCCP(=O)(O)O)cc1)C(Cc1ccc(C)c(C)c1)c1cc(F)cc(F)c1 (stereo not shown) [Compound 6, [3-({4-[({[(1E)-2-(3,5-difluorophenyl)-3-(3,4-dimethylphenyl)-1-methylpropylidene]amino}oxy)methyl]benzyl}amino)propyl]phosphonic acid]",0.88
5,"C/C(=N\OCc1ccc(CNCCC(=O)O)cc1)C(Cc1ccc(C)c(C)c1)c1cc(F)cc(F)c1 (stereo not shown) [Compound 7, 3-({4-[({[(1E)-2-(3,5-difluorophenyl)-3-(3,4-dimethylphenyl)-1-methylpropylidene]amino}oxy)methyl]benzyl}amino)propanoic acid]",6.8
6,"C/C(=N\OCc1ccc(CNCCCP(=O)(O)O)cc1)C(Sc1ccc(C)c(C)c1)c1cccc(Cl)c1 (stereo not shown) [Compound 10, {3-[(4-{[({(1E)-2-(3-chlorophenyl)-2-[(3,4-dimethylphenyl)thio]-1-methylethylidene}amino)oxy]methyl}benzyl)amino]propyl}phosphonic acid]",8.34

# The remaining compounds from weak to strong by EC50, led by results:
row,EC50 [nM],SMILES
1,216,"C/C(=N\OCC(Oc1ccc(C)c(C)c1)c1cccc(Cl)c1)c1ccc(CNCCC(=O)O)cc1 (stereo not shown) [Compound 14, 3-[(4-{(1E)-N-[2-(3-chlorophenyl)-2-(3,4-dimethylphenoxy)ethoxy]ethanimidoyl}benzyl)amino]propanoic acid]"
2,43.2,"C/C(=N\OCC(Cc1ccc(C)c(C)c1)c1cccc(C)c1)c1ccc(CNCCC(=O)O)cc1 (stereo not shown) [Compound 1, 3-[(4-{(1E)-N-[3-(3,4-dimethylphenyl)-2-(3-methylphenyl)propoxy]ethanimidoyl}benzyl)amino]propanoic acid]"
3,15.6,"C/C(=N\OCC(Cc1ccc(C)c(C)c1)c1cccc(Cl)c1)c1ccc(CNCCC(=O)O)cc1 (stereo not shown) [Compound 3, 3-[(4-{(1E)-N-[2-(3-chlorophenyl)-3-(3,4-dimethylphenyl)propoxy]ethanimidoyl}benzyl)amino]propanoic acid]"
4,11.4,"C/C(=N\OCC(Oc1ccc(C)c(C)c1)c1cccc(Cl)c1)c1ccc(CNCCCP(=O)(O)O)cc1 (stereo not shown) [Compound 15, {3-[(4-{(1E)-N-[2-(3-chlorophenyl)-2-(3,4-dimethylphenoxy)ethoxy]ethanimidoyl}benzyl)amino]propyl}phosphonic acid]"
